According to patent US12458630B2, “Combination therapy for cancer” (The Regents of the University of California, priority 2020, dated 2025):
Entries after “also recorded” stand apart in the source; their conditions may differ.

Legend:
KC6141 tumors = experiment: s.c. tumors in C57BL/6 mice; type: in vivo, mouse; settings: EIPA 7.5 mg/kg, MRT68921 10 mg/kg, 21 days (3 weeks)
Experimental: To evaluate the effects of MP on tumor growth in the autochthonous model, Kras^G12D;Ikkα^Δpan mice, at 4 weeks of age, were treated with vehicle or 10 mg/kg EIPA (Sigma) by intraperitoneal injection every other day for 1 month. After that, surgically removed pancreata were weighed and used for further analysis. To evaluate the effects of MP on heterotopic xenografts, female homozygous BALB/c Nu/Nu nude mice were injected subcutaneously (s.c.) in both flanks at 7 weeks of age with 10^6 parental and IKKα KO MIA PaCa-2 cells mixed at a 1:1 dilution with BD Matrigel (BD Biosciences) in a total volume of 100 μl. Mice were treated with EIPA (7.5 mg/kg) for 15 days when tumors attained an average volume of 50-100 mm^3. As a control, animals treated with vehicle (DMSO in PBS) were used. Volumes (1/2×(width^2×length)) of s.c. tumors were calculated on the basis of measurements using digital calipers after 15 days of treatment. […] Tumor volumes were calculated as above.
In some embodiments, to evaluate the effects of MP on tumor growth or survival in the autochthonous model, Kras^G12D;Ikkα^ΔPEC mice, at 4 weeks of age, were treated with vehicle or 10 mg/kg EIPA (Sigma) by i.p. injection every other day for 1 month. […] Volumes (1/2×(width^2×length)) of s.c. tumors were calculated on the basis of measurements using digital calipers after 15 days of treatment. […] Tumor volumes were calculated as above.

KC6141 cells [1] = experiment: L-Amino acid assay; type: cell-based, mouse; settings: 0.5 mM glucose, 24 hrs; for amino acid content: KC6141 cells on ECM
Experimental: Extracellular Matrix (ECM) Preparation. Skin fibroblasts were seeded on 6/12/96-well plates. One day after plating, cells were switched into DMEM (with pyruvate) with 10% dialysed FBS supplemented with or without 500 μM ^3H-proline and 100 μM Vitamin C. Cells were cultured for 6 days with media renewal every 24 h. After six days, skin fibroblasts were removed by washing in 1 ml or 500 μl or 100 μl per well PBS with 0.5% (v/v) Triton X-100 and 20 mM NH4OH. ECM was washed five times with PBS before plating KC6141 cells. The following day, KC6141 cells were switched into the indicated medium for 24 or 72 hrs.
L-Amino Acid Assay. Total amount of free L-amino acids (except for glycine) were measured by L-Amino Acid Assay Kit (Colorimetric) (antibodies) according to manufacturer's protocol. Briefly, KC6141 cells were grown on 6-well plates coated with or without ECM and treated as above. The cells were resuspended at 10^6 cells/mL 1× Assay Buffer and were homogenized on ice and then centrifuged to remove debris. 50 μL of each L-Alanine standard or cell lysis was added into wells of a 96-well microtiter plate. Then 50 μL of Reaction Mix was added to each well. The well contents were mixed thoroughly and incubated for 90 minutes at 37° C. protected from light. The plate was read with a spectrophotometric microplate reader in the 540-570 nm range. The concentration of L-Amino Acids was calculated within samples by comparing the sample OD to the standard curve.

KC6141 cells [2] = experiment: BrdU incorporation (immunofluorescence); type: cell-based, mouse; settings: 0.5 mM glucose, 24 hrs; for BrdU incorporation (cell proliferation): KC6141 cells on ECM

Row | SMILES | tumor growth (KC6141 tumors) | amino acid content (KC6141 cells [1]) | amino acid content in p62/NRF2 ablated cells (KC6141 cells [1]; p62 KD or Nrf2 KD KC6141 cells on ECM) | BrdU incorporation (cell proliferation) (KC6141 cells [2]) | BrdU incorporation in NRF2 ablated cells (KC6141 cells [2]; Nrf2 KD KC6141 cells on ECM) | BrdU incorporation (cell proliferation) (KC6141 cells [2]; listed as MRT)
1 | CCN(c1nc(N)c(C(=O)N=C(N)N)nc1Cl)C(C)C [EIPA, 5-(N-ethyl-N-isopropyl) amiloride] | small effect | reduced | ineffective | reduced; also recorded: suppressed cell proliferation in all conditions | ineffective | –
2 | CN1CCc2cc(Nc3ncc(C4CC4)c(NCCCNC(=O)C4CCC4)n3)ccc2C1 [MRT68921] | small effect | further elevated | – | further elevated | – | enhanced cell proliferation in WT, but not in Nrf2 KD KC6141
